Experimental findings from article PMC6730478, “Discovery of N-(2-Aminophenyl)-4-(bis(2-chloroethyl)amino)Benzamide as a Potent Histone Deacetylase Inhibitor” (Frontiers in Pharmacology, 2019) are described below.

The test system of test [1] is HepG2 cells. Put plainly: Cell cycle assay (PI staining, flow cytometry). The note with it: 6 h; for HepG2 cells at the G2/M phase: control 21.24%; for HepG2 cell population at the G0/G1 phase: control 55.60%. It is filed as cell-based. On the procedure: Cells were then washed twice with cold phosphate-buffered saline (PBS) and fixed in 70% precooled ethanol at 4°C for 12 h. After the fixation, cells were washed again with PBS and stained with PI/RNase A for 30 min at room temperature and eventually subjected to flow cytometry (CytoFLEX, Beckman Coulter) for cell cycle distribution determination.
For orientation: Flow cytometry measures light scatter and fluorescence of single cells or particles in a stream.

Test [2] concerns HepG2 cells. Put plainly: Annexin V-FITC/PI apoptosis detection (flow cytometry). It is filed as cell-based. The note with it: 24 h, control 3.52%. Here is the method:
Cells were then washed with PBS, collected, resuspended with binding buffer from the annexin V-FITC kit (Thermo Fisher Co., USA) and then added with 5 µl of annexin V-FITC and mixed gently. After 10 min of incubation, 1 µl of PI was added to each sample and mixed gently. After incubation at room temperature for another 20 min in the dark, cells were subjected to flow cytometry (CytoFLEX, Beckman Coulter).

In test [3] the test system is A2780 cells. Put plainly: MTT antiproliferative assay. The class given is cell-based. The note with it: for IC50: Homo sapiens, A2780, 48 h, read-out: Antiproliferative activity IC50, A2780. Here is the method: . The stock solutions of tested compounds were diluted with culture medium. The cells were seeded in 96-well plates at a density 5 × 10^3 cells per well and incubated until confluency of 90–95%, and then each well was treated with 100 µl of medium containing the desired concentrations of tested compounds and incubated for 48 h. MTT working solution of 20 µl (5 mg/ml) was then added to each well and incubated for another 4 h. At the end of incubation, the medium were carefully removed, and 200 µl of DMSO was added. The optical density at 490 and 630 nm was then measured with a microplate reader (Model 680, Bio-Rad). […] The IC50 values were calculated with Origin 7.5 software, and standard deviations of the IC50 values were obtained from at least three independent experiments.
For orientation: Tetrazolium assays rely on reduction of a dye to a coloured formazan, in cell work by metabolically active cells.

Test [4] relates to U937 cells. Put plainly: MTT antiproliferative assay. It is filed as cell-based. The note with it: Homo sapiens, U-937, 48 h, read-out: Antiproliferative activity IC50, U937. On the procedure: (§1) The stock solutions of tested compounds were diluted with culture medium. […] MTT working solution of 20 µl (5 mg/ml) was then added to each well and incubated for another 4 h. At the end of incubation, the medium were carefully removed, and 200 µl of DMSO was added. The optical density at 490 and 630 nm was then measured with a microplate reader (Model 680, Bio-Rad). […] The IC50 values were calculated with Origin 7.5 software, and standard deviations of the IC50 values were obtained from at least three independent experiments.

For test [5], the system named is MKN45 cells. Put plainly: MTT antiproliferative assay. The note with it: Homo sapiens, MKN-45, 48 h, read-out: Antiproliferative activity IC50, MKN45. It is filed as cell-based. On the procedure:
as §1

The subject of test [6] is MDA-MB-468 cells. Put plainly: MTT antiproliferative assay. The class given is cell-based. The note with it: Homo sapiens, MDA-MB-468, 48 h, read-out: Antiproliferative activity IC50, MDA-MB-468. On the procedure:
as §1

The test system of test [7] is LoVo cells. In words: MTT antiproliferative assay. It is filed as cell-based. The note with it: Homo sapiens, 48 h, read-out: Antiproliferative activity IC50, LoVo. Here is the method:
as §1

For test [8], the system named is A549 cells. In words: MTT antiproliferative assay. The class given is cell-based. The note with it: Homo sapiens, A549, 48 h, read-out: Antiproliferative activity IC50, A549. Here is the method: as §1
Test [9] deals with MDA-MB-231 cells. In words: MTT antiproliferative assay. It is filed as cell-based. The note with it: Homo sapiens, MDA-MB-231, 48 h, read-out: Antiproliferative activity IC50, MDA-MB-231. Here is the method: as §1
Test [10] relates to MCF-7 cells. Put plainly: MTT antiproliferative assay. The note with it: Homo sapiens, MCF7, 48 h, read-out: Antiproliferative activity IC50, MCF-7. The class given is cell-based. On the procedure: as §1
Test [11] has as its system Colo205 cells. Put plainly: MTT antiproliferative assay. It is filed as cell-based. The note with it: Homo sapiens, COLO 205, 48 h, read-out: Antiproliferative activity IC50, Colo205. Here is the method: as §1
Test [12] concerns PNAC-1 cells. In words: MTT antiproliferative assay. It is filed as cell-based. The note with it: 48 h, read-out: Antiproliferative activity IC50, PNAC-1. On the procedure:
as §1

Test [13] relates to HepG2 cells. Put plainly: MTT antiproliferative assay. It is filed as cell-based. Here is the method: as §1
For test [14], the system named is Calu-3 cells. In words: MTT antiproliferative assay. The note with it: Homo sapiens, Calu-3, 48 h, read-out: Antiproliferative activity IC50, Calu-3. It is filed as cell-based. Here is the method: as §1
Test [15] deals with SKOV3 cells. Put plainly: MTT antiproliferative assay. The note with it: Homo sapiens, SK-OV-3, 48 h, read-out: Antiproliferative activity IC50, SKOV3. The class given is cell-based. On the procedure: as §1
The target of test [16] is T1, HDAC7 (Homo sapiens, UniProt Q8WUI4).
T1 construct: purchased BPS Bioscience
T1 sequence (Q8WUI4 whole entry): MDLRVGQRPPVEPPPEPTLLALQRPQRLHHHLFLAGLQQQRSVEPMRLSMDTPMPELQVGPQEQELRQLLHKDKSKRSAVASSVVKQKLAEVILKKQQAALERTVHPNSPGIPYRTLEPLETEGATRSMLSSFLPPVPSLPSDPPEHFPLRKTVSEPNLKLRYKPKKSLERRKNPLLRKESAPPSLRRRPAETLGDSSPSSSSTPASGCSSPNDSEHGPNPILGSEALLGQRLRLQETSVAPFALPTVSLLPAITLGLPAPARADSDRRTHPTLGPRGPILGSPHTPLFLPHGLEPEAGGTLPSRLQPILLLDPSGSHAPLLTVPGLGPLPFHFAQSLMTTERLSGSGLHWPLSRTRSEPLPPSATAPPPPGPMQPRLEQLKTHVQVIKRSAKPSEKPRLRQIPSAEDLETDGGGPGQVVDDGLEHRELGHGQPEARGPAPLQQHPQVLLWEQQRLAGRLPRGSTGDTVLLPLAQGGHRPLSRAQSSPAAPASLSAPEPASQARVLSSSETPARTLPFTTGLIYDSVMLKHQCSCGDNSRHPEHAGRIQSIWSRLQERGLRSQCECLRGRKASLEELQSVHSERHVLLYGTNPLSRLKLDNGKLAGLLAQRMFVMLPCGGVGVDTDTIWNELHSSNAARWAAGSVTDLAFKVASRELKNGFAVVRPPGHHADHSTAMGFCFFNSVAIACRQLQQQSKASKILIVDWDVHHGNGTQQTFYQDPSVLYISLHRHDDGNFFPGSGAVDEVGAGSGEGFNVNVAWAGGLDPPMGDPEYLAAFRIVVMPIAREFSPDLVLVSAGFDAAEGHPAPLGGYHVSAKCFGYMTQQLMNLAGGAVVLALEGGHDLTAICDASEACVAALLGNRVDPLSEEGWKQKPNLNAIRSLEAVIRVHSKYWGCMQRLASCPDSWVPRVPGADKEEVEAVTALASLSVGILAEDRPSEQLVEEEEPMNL
Put plainly: In vitro HDAC inhibitory assay (fluorogenic substrate). It is filed as biochemical. The note with it: n ≥ 2, SD <10% of the mean; read-out: Enzyme inhibitory activity IC50, HDAC7. On the procedure: (§2) All of the HDAC enzymes were bought from BPS Bioscience. In vitro HDAC inhibition assays were conducted as previously described. Briefly, 20 μl of recombinant HDAC enzyme solution (HDAC1−9) was mixed with various concentrations of tested compound (20 μl). The mixture was incubated at 30°C for 1 h (for the time-dependent assay, the mixture was incubated for 15, 30, 60, and 90 min, respectively), and then 10 μl of fluorogenic substrate (Boc-Lys (acetyl)-AMC (3 mM) for HDAC1, 2, 3, and 6, Boc-Lys (trifluoroacetyl)-AMC (3 mM) for HDAC 4, 7, 8, and 9) was added. After incubation at 30°C for 2 h, the catalytic reaction was stopped by addition of 10 μl of developer containing trypsin and trichostatin A (TSA). After 30 min, fluorescence intensity was measured using a microplate reader at excitation and emission wavelengths of 360 and 460 nm, respectively. The inhibition ratios were calculated from the fluorescence intensity readings of tested wells relative to those of control wells, and the IC50 curves and values were determined by GraphPad Prism 6.0 software.

In test [17] the target is T2, HDAC1 (Homo sapiens, UniProt Q13547).
T2 construct: purchased BPS Bioscience
T2 sequence (Q13547 whole entry): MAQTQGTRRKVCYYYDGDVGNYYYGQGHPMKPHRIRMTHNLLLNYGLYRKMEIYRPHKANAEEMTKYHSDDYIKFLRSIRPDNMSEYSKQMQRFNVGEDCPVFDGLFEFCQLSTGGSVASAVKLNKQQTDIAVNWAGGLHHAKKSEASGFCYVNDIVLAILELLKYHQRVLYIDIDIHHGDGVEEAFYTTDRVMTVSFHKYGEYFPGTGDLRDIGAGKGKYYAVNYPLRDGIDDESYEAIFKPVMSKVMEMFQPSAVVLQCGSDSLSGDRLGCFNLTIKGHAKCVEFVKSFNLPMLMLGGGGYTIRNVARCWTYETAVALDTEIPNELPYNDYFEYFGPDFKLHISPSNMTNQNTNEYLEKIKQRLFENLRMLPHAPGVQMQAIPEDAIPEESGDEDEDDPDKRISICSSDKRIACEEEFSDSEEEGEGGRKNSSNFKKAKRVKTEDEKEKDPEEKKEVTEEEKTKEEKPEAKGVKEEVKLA
Described as above. It is filed as biochemical. Here is the method: as §2

Test [18] addresses T3, HDAC2 (Homo sapiens, UniProt Q92769).
T3 construct: purchased BPS Bioscience
In words: biochemical. The note with it: n ≥ 2, SD <10% of the mean; read-out: Enzyme inhibitory activity IC50, HDAC2. On the procedure: as §2

The target of test [19] is T4, HDAC3 (Homo sapiens, UniProt O15379).
T4 construct: purchased BPS Bioscience
T4 sequence (O15379 whole entry): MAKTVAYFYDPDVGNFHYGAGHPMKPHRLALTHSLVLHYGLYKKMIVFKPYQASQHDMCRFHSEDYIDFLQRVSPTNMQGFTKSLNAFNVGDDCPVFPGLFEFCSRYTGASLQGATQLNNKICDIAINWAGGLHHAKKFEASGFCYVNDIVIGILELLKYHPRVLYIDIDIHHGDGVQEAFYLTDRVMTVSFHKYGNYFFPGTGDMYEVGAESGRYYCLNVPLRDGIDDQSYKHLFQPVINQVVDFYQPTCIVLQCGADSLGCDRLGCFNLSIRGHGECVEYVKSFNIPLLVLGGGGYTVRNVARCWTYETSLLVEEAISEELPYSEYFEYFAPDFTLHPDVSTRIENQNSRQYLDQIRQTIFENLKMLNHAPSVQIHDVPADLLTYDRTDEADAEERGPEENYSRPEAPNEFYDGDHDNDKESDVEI
T4 sequence (Q9Y618 395-489 partner limits assumed): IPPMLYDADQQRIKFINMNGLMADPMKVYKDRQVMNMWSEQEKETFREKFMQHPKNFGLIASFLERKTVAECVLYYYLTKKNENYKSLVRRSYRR
In words: biochemical. The note with it: n ≥ 2, SD <10% of the mean; read-out: Enzyme inhibitory activity IC50, HDAC3. Here is the method: as §2

Test [20] addresses T5, HDAC8 (Homo sapiens, UniProt Q9BY41).
T5 construct: purchased BPS Bioscience
In words: biochemical. On the procedure: as §2

Test [21] has as its target T6, HDAC9 (Homo sapiens, UniProt Q9UKV0).
T6 construct: purchased BPS Bioscience
Put plainly: biochemical. On the procedure:
as §2

Test [22] has as its target T7, HDAC6 (Homo sapiens, UniProt Q9UBN7).
T7 construct: purchased BPS Bioscience
In words: biochemical. Here is the method: as §2

Test [23] concerns the target T8, HDAC4 (Homo sapiens, UniProt P56524).
T8 construct: purchased BPS Bioscience
Put plainly: biochemical. Here is the method: as §2

For test [24], the system named is cleaved caspase-3. Put plainly: Western blot in HepG2 cells. It is filed as cell-based. The note with it: 1 µM, 24 h, compared with SAHA. Here is the method:
(§3) Protein sample concentrations were determined with Brandford assay. Thirty micrograms of each sample was subjected to sodium dodecyl sulfate–polyacrylamide gel electrophoresis (SDS-PAGE). After electrophoresis, proteins were transferred to polyvinylidene difluoride (PVDF) membrane (Millipore) and blocked with 5% fat-free dry milk in 1 × Tris-buffered saline (TBST) for 2 h at room temperature. Membranes were then probed with corresponding antibodies at 4°C overnight. Cleaved caspase-3 (#9661), caspase-3 (#9662), cleaved caspase-9 (#9505), caspase-9 (#9508), phospho-cdc2 (#4539), and cdc2 (#77055) antibodies were obtained from Cell Signaling Technology (Danvers, MA). Expression of human β-actin was detected with anti-β-actin antibody (Proteintech, Rosemont, IL) as a loading control. The membranes were then incubated with horseradish peroxidase (HRP)-conjugated secondary antibody (Santa Cruz, CA) and visualized with enhanced chemiluminescence (ECL)-detecting reagents (ComWin Biotech Co., Beijing, China).
Background: In western blotting, separated proteins are transferred to a membrane and probed.

In test [25] the test system is phosphorylated cdc2. Put plainly: Western blot in HepG2 cells. It is filed as cell-based. The note with it: 1 µM, 24 h, compared with SAHA. Here is the method:
as §3

For test [26], the system named is cleaved caspase-9. In words: Western blot in HepG2 cells. It is filed as cell-based. The note with it: 1 µM, 24 h, compared with SAHA. Here is the method: as §3
Where [27] appears, read: more potent than SAHA, ratio of IC50 values.

T7 sequence (Q9UBN7 whole entry): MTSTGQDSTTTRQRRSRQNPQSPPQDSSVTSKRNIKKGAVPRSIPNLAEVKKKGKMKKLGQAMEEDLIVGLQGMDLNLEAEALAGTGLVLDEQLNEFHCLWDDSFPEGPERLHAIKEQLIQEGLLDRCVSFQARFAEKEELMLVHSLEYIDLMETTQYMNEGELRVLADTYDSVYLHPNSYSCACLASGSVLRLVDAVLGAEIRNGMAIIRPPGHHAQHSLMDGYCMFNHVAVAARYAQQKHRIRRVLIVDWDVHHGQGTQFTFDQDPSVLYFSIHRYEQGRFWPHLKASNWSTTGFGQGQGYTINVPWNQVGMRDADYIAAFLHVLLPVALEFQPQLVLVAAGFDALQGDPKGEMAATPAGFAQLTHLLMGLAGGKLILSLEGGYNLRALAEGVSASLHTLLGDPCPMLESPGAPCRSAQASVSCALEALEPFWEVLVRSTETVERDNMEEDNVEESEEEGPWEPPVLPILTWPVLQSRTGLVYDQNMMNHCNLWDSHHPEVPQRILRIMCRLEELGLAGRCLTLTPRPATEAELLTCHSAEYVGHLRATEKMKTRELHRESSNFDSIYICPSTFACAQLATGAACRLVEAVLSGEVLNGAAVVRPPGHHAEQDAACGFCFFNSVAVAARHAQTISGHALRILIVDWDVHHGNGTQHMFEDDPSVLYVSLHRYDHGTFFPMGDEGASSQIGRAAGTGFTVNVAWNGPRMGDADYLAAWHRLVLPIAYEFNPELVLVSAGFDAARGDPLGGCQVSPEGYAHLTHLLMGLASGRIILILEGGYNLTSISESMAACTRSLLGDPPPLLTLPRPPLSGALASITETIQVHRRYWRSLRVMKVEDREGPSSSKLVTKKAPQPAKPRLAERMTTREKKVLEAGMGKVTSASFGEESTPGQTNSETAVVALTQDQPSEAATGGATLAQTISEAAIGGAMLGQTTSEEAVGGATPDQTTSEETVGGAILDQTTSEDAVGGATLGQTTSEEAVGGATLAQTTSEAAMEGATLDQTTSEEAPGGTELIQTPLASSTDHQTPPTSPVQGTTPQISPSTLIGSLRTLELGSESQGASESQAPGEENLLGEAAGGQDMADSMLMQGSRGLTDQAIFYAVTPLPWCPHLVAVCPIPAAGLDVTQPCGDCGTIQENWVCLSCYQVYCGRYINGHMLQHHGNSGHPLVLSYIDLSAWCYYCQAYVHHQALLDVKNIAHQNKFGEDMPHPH
T3 sequence (Q92769 whole entry): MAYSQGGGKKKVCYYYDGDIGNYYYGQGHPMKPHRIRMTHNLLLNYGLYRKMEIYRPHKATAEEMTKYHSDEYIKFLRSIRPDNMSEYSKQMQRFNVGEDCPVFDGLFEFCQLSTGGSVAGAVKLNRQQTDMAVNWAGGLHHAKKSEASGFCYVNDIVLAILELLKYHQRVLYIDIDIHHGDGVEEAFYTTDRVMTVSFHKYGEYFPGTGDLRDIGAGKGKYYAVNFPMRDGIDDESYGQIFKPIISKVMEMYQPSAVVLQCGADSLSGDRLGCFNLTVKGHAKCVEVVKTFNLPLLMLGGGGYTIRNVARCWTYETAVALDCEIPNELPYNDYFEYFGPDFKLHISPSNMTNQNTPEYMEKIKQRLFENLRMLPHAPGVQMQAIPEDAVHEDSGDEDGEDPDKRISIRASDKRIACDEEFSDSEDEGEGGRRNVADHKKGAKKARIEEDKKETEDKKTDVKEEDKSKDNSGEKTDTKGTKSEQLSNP
T5 sequence (Q9BY41 whole entry): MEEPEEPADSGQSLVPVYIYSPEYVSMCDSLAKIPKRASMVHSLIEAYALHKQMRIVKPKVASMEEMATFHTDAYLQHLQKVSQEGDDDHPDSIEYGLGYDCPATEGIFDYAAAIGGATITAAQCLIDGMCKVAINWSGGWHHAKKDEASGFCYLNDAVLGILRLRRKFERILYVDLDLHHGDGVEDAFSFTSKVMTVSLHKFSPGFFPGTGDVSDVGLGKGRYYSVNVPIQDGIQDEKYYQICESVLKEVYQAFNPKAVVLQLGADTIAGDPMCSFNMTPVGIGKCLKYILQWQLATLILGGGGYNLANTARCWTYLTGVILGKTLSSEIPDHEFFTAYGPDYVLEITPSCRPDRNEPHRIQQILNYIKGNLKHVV
T6 sequence (Q9UKV0 whole entry): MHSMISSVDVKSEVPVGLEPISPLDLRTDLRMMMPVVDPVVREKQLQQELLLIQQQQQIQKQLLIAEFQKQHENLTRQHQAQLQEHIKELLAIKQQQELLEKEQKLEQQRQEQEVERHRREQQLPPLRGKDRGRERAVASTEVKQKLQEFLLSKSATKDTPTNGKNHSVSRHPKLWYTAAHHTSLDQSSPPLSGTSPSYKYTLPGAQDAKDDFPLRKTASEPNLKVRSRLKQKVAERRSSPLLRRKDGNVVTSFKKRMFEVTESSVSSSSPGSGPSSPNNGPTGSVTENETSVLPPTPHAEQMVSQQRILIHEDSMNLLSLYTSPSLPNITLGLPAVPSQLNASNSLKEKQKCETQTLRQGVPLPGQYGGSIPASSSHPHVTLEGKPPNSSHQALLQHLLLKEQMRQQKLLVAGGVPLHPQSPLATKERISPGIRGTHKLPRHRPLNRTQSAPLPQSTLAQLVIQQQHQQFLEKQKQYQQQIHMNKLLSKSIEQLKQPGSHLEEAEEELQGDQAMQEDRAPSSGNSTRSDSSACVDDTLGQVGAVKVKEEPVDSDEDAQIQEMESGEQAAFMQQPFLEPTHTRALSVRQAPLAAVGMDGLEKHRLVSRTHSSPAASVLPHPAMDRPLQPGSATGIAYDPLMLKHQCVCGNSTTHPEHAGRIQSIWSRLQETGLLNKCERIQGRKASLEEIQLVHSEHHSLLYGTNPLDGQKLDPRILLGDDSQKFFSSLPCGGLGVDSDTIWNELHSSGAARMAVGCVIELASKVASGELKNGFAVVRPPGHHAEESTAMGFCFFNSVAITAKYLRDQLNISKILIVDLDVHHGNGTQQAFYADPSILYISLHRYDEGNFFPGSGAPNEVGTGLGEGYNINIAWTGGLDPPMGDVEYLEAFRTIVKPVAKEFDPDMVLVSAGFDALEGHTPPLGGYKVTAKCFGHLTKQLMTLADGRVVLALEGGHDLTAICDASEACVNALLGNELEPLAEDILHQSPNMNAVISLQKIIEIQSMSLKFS

Take `O=C(CCCCCCC(=O)Nc1ccccc1)NO` [SAHA, Suberoylanilide hydroxamic acid, reference compound]: the “Effect on the population of HepG2 cells at the G0/G1 phase (in words)” value in test [1] (1, 3, and 9 µM) is given as “no significant effects”. The “Percentage of apoptotic HepG2 cells” value stood at 4.52% in test [2] (1 µM), 6.24% in [2] (3 µM) and 20.32% in [2] (9 µM). The half-maximal inhibitory concentration (IC50) in [3] came out at 27.3 µM.
On to `Nc1ccccc1NC(=O)c1ccc(N(CCCl)CCCl)cc1` [NA, N-(2-Aminophenyl)-4-(bis(2-chloroethyl)amino)benzamide], for which the “HepG2 cells at the G2/M phase” value in [1] (1 µM) was found to be 25.98%; in test [1] (3 µM) it was 35.05%; in test [1] (9 µM) it was 38.89%. Besides, the entries for the “HepG2 cell population at the G0/G1 phase” value in [1] (1 µM), in [1] (3 µM) and in [1] (9 µM) were 48.64%, 41.61% and 37.19%, respectively. Besides, the results for the “Percentage of apoptotic HepG2 cells” value in [2] (1 µM), in test [2] (3 µM) and in [2] (9 µM) were 9.15%, 18.07% and 37.39%, respectively. In addition, the IC50 in test [4] is 1.21 µM; in test [5] it was 14.3 µM; in test [6], 6.33 µM; in test [7], 10.4 µM; in [8] it was 14.7 µM; in test [9], 7.64 µM. The IC50 in test [10] is 18.7 µM; in test [11] it was 33.8 µM; in [12], 8.52 µM; in test [13] (Homo sapiens, HepG2, 48 h, read-out: Antiproliferative activity IC50, HepG2), 1.73 µM; in test [14] it was 5.81 µM; in test [15], 3.91 µM. Moreover, the IC50 is above 5 µM in [16]; 0.0952 µM in test [17] (n ≥ 2, SD <10% of the mean, read-out: Enzyme inhibitory activity IC50, HDAC1); 0.261 µM in test [18]; 0.256 µM in [19]; above 5 µM in test [20]; above 5 µM in [21]. The IC50 in test [22] was above 5 µM; in [23] it was above 5 µM; in [3], 2.66 µM. Moreover, in [13] (setting [27]), the “Potency relative to SAHA, HepG2 cell growth inhibition” value was 11.3 fold. The “HDAC1 selectivity versus HDAC2” value in [17] (ratio of IC50 values, HDAC1 versus HDAC2) turned out to be 2.74 fold. In addition, in [17] (ratio of IC50 values, HDAC1 versus HDAC3), the “HDAC1 selectivity versus HDAC3” value was determined as 2.69 fold. Also, in test [3] (setting [27]), the “Potency relative to SAHA, A2780 cell growth inhibition” value is given as 10.3 fold. In addition, the “Protein expression level of cleaved caspase-3” value in test [24] was “remarkedly increased”. Besides, in test [25], the “Phosphorylation of cdc2” value is on record as “up-regulated”. Also, the “Protein expression level of cleaved caspase-9” value in test [26] was “remarkedly increased”.

Broadly, the IC50 is the midpoint of a concentration-inhibition curve.
